Test results taken from patent publication US8404677B2, “Kinase inhibitors” (Genosco, priority 2009, dated 2013).

How the values were obtained:
[1] = tested on: TNF-α release in THP-1 cells, IgG stimulation; assay: SYK dependent TNF-α release assay (IgG stimulation); type: cell-based, human
Protocol: Compounds of the invention were tested for their TNF-α release effect on THP-1 cells. For SYK dependent TNF-α release assay (i.e., via IgG stimulation), THP-1 cells derived from human monocytic cells were obtained from the American Type Culture Collection (ATCC, Manassas, Va.). This cell line was maintained with an Roswell Park Memorial Institute (RPMI) medium (GIBCO™) containing 10 fetal bovine serum (FBS; GIBCO™) and 0.05 mM 2-mercaptoethanol. The THP-1 cells were seeded at 1×10^5 cells/100 μL/well into human IgG ([…], INVITROGEN™)-coated 96 well culture plate, and serially diluted compound was then added. After an 18-hour incubation period at 37° C., supernatants were collected for the determination of the TNF-α level by enzyme-linked immunosorbent assay (ELISA), and the remaining cells were subjected to an MTT (yellow tetrazolium salt) assay to determine the cytotoxic effects of compound.

RPMI-8226 = assay: cells; type: cell-based; conditions: RPMI-8226 (Leukemia)
SR = assay: cells; type: cell-based; conditions: SR (Leukemia)
HOP-92 = assay: cells; type: cell-based; conditions: HOP-92 (NSCLC)
NCI-H226 = assay: cells; type: cell-based; conditions: NCI-H226 (NSCLC)
SW-620 = assay: cells; type: cell-based; conditions: SW-620 (Colon Cancer)
SF-295 = assay: cells; type: cell-based; conditions: SF-295 (CNS Cancer)
M14 = assay: cells; type: cell-based; conditions: M14 (Melanoma)
SK-MEL-28 = assay: cells; type: cell-based; conditions: SK-MEL-28 (Melanoma)
UACC-257 = assay: cells; type: cell-based; conditions: UACC-257 (Melanoma)
OVCAR-3 = assay: cells; type: cell-based; conditions: OVCAR-3 (Ovarian Cancer)
OVCAR-4 = assay: cells; type: cell-based; conditions: OVCAR-4 (Ovarian Cancer)
OVCAR-5 = assay: cells; type: cell-based; conditions: OVCAR-5 (Ovarian Cancer)
A498 = assay: cells; type: cell-based; conditions: A498 (Renal Cancer)
ACHN = assay: cells; type: cell-based; conditions: ACHN (Renal Cancer)
CAKI-1 = assay: cells; type: cell-based; conditions: CAKI-1 (Renal Cancer)
UO-31 = assay: cells; type: cell-based; conditions: UO-31 (Renal Cancer)
T-47D = assay: cells; type: cell-based; conditions: T-47D (Breast Cancer)
[2] = Homo sapiens, read-out: LC50 (the source's name)

## O=c1[nH]ccc2nc(N3CCC(O)CC3)nc(Nc3cccc(C(F)(F)F)c3)c12 [Compound 6, 2-(4-hydroxypiperidin-1-yl)-4-(3-(trifluoromethyl)phenylamino)pyrido[4,3-d]pyrimidine-5(6H)-one]
[1]; Homo sapiens, IgG stimulation, At 0.3 μM, THP-1, read-out: Inhibition of TNF-α Release (percentage inhibition)
  inhibition at 0.3 µM: 51.9%
[1]; Homo sapiens, IgG stimulation, At 1 μM, THP-1, read-out: Inhibition of TNF-α Release (percentage inhibition)
  inhibition at 1 µM: 83%
[1]; IgG stimulated release, 0.3 μM
  percentage inhibition of TNF-α release compared with R406: greater than those exhibited by R406
RPMI-8226; Homo sapiens
  GI50: 2.95 µM
  IC50: 5.5 µM
RPMI-8226; [2]
  CC50: 100 µM
RPMI-8226
  TGI: 91.2 µM
SR; Homo sapiens
  GI50: 0.708 µM
  IC50: 2.51 µM
SR; [2]
  CC50: 100 µM
SR
  TGI: 26.9 µM
HOP-92
  TGI: 100 µM
HOP-92; Homo sapiens
  GI50: 100 µM
  IC50: ≥ 100 µM
HOP-92; [2]
  CC50: 100 µM
NCI-H226; Homo sapiens
  GI50: 3.24 µM
  IC50: 8.32 µM
NCI-H226; [2]
  CC50: 100 µM
NCI-H226
  TGI: 17.8 µM
SW-620; Homo sapiens
  GI50: 1.91 µM
  IC50: 2.82 µM
SW-620; [2]
  CC50: 74.1 µM
SW-620
  TGI: 12.9 µM
SF-295; Homo sapiens
  GI50: 2.95 µM
  IC50: 6.76 µM
SF-295; [2]
  CC50: 56.2 µM
SF-295
  TGI: 7.76 µM
M14; Homo sapiens
  GI50: 1.55 µM
  IC50: 3.31 µM
M14; [2]
  CC50: 32.4 µM
M14
  TGI: 8.32 µM
SK-MEL-28; Homo sapiens
  GI50: 4.68 µM
  IC50: 11 µM
SK-MEL-28; [2]
  CC50: 50.1 µM
SK-MEL-28
  TGI: 17.4 µM
UACC-257; Homo sapiens
  GI50: 4.27 µM
  IC50: 8.71 µM
UACC-257; [2]
  CC50: 45.7 µM
UACC-257
  TGI: 12.9 µM
OVCAR-3; Homo sapiens
  GI50: 1.35 µM
  IC50: 3.63 µM
OVCAR-3; [2]
  CC50: 46.8 µM
OVCAR-3
  TGI: 3.98 µM
OVCAR-4; Homo sapiens
  GI50: 1.74 µM
  IC50: 9.12 µM
  LC50: 100 µM
OVCAR-4
  TGI: 36.3 µM
OVCAR-5; Homo sapiens
  GI50: 28.2 µM
  IC50: 74.1 µM
OVCAR-5; [2]
  CC50: 100 µM
OVCAR-5
  TGI: 93.3 µM
A498
  TGI: 100 µM
A498; Homo sapiens
  GI50: 2.51 µM
  IC50: ≥ 100 µM
A498; [2]
  CC50: 100 µM
ACHN
  TGI: 85.1 µM
ACHN; Homo sapiens
  GI50: 0.708 µM
  IC50: 2.24 µM
ACHN; [2]
  CC50: 100 µM
CAKI-1
  TGI: 6.31 µM
CAKI-1; Homo sapiens
  GI50: 0.282 µM
  IC50: 1.29 µM
CAKI-1; [2]
  CC50: 100 µM
UO-31; Homo sapiens
  GI50: 0.776 µM
  IC50: 16.2 µM
UO-31; [2]
  CC50: 100 µM
UO-31
  TGI: 22.9 µM
T-47D; Homo sapiens, T47D
  GI50: 3.09 µM
  IC50: 8.51 µM
T-47D; Homo sapiens, T47D, read-out: LC50 (the source's name)
  CC50: 100 µM
T-47D
  TGI: 26.3 µM
